According to ChEMBL document CHEMBL2413073, “Efficient construction of novel D-ring modified steroidal dienamides and their cytotoxic activities” (Eur J Med Chem, 2013):

Key:
[1] = tested on: SMMC-7721; assay: Cytotoxicity against human SMMC7721 cells after 72 hrs by MTT assay; type: functional, cell-based; conditions: SMMC-7721, 72 h
[2] = tested on: MCF7; assay: cells; conditions: Homo sapiens, MCF7, 72 h
Description: Cytotoxicity against human MCF7 cells after 72 hrs by MTT assay

[3] = tested on: MGC-803; assay: Cytotoxicity against human MGC803 cells after 72 hrs by MTT assay; type: functional, cell-based; conditions: MGC-803, 72 h
[4] = tested on: PC-3; assay: Cytotoxicity against human PC3 cells after 72 hrs by MTT assay; type: functional, cell-based; conditions: PC-3, 72 h
[5] = Cytotoxicity against human EC109 cells after 72 hrs by MTT assay; type: functional, cell-based; conditions: ECa-109, 72 h
[6] = tested on: MGC-803; assay: Ratio of 5-fluorouracil IC50 to compound IC50 for human MGC803 cells; type: functional
[7] = tested on: SMMC-7721; assay: Ratio of 5-fluorouracil IC50 to compound IC50 for human SMMC7721 cells; type: functional

SMILES	IC50 [1] [µM]	IC50 [2] [µM]	IC50 [3] [nM]	IC50 [4] [µM]	IC50 [5] [µM]	Ratio IC50 [6]	Ratio IC50 [7]
COc1cc(/C=C2\C[C@H]3[C@@H]4CC=C5C[C@@H](OC(C)=O)CC[C@]5(C)[C@H]4CC[C@]3(C)\C2=C(\C#N)C(N)=O)cc(OC)c1OC	2.82	5.23	6340	11.7	5.28	–	–
COc1cccc(/C=C2\C[C@H]3[C@@H]4CC=C5C[C@@H](OC(C)=O)CC[C@]5(C)[C@H]4CC[C@]3(C)\C2=C(\C#N)C(N)=O)c1	11.5	8.36	2190	13	7.04	–	–
CC(=O)O[C@H]1CC[C@@]2(C)C(=CC[C@@H]3[C@@H]2CC[C@]2(C)C(=C(/C#N)C(N)=O)/C(=C/c4ccc(Br)cc4)C[C@@H]32)C1	16.5	2.95	2710	26.8	5.3	–	–
CC(=O)O[C@H]1CC[C@@]2(C)C(=CC[C@@H]3[C@@H]2CC[C@]2(C)C(=C(/C#N)C(N)=O)/C(=C/c4ccco4)C[C@@H]32)C1	22.9	39.4	120	23.4	39.4	57	–
O=c1[nH]cc(F)c(=O)[nH]1 [FLUOROURACIL]	9.78	–	–	24.8	10.6	–	–
CC(=O)O[C@H]1CC[C@@]2(C)C(=CC[C@@H]3[C@@H]2CC[C@]2(C)C(=C(/C#N)C(N)=O)/C(=C/c4ccc(Cl)cc4Cl)C[C@@H]32)C1	5.04	3.98	7380	24.3	5.24	–	–
CC(=O)O[C@H]1CC[C@@]2(C)C(=CC[C@@H]3[C@@H]2CC[C@]2(C)C(=C(/C#N)C(N)=O)/C(=C/c4ccccc4F)C[C@@H]32)C1	15.4	4.66	2990	11.4	15.6	–	–
CC(=O)O[C@H]1CC[C@@]2(C)C(=CC[C@@H]3[C@@H]2CC[C@]2(C)C(=C(/C#N)C(N)=O)/C(=C/c4ccc(Cl)c(Cl)c4)C[C@@H]32)C1	2.55	2.21	3200	8.18	4.37	–	–
C[C@]12CC[C@H](O)CC1=CC[C@@H]1[C@@H]2CC[C@]2(C)C(=C(/C#N)C(N)=O)/C(=C/c3ccc(Cl)c(Cl)c3)C[C@@H]12	3.34	2.41	5110	8.84	8.61	–	–
CC(=O)O[C@H]1CC[C@@]2(C)C(=CC[C@@H]3[C@@H]2CC[C@]2(C)C(=C(/C#N)C(N)=O)/C(=C/c4ccc(C(C)C)cc4)C[C@@H]32)C1	9.3	15.3	1090	13.5	10	–	–
COc1cc(/C=C2\C[C@H]3[C@@H]4CC=C5C[C@@H](O)CC[C@]5(C)[C@H]4CC[C@]3(C)\C2=C(\C#N)C(N)=O)cc(OC)c1OC	7.94	6.54	1830	12.2	8.72	–	–
COc1cccc(/C=C2\C[C@H]3[C@@H]4CC=C5C[C@@H](O)CC[C@]5(C)[C@H]4CC[C@]3(C)\C2=C(\C#N)C(N)=O)c1	6.09	5.57	3960	14	9.27	–	–
CC(=O)O[C@H]1CC[C@@]2(C)C(=CC[C@@H]3[C@@H]2CC[C@]2(C)C(=C(/C#N)C(N)=O)/C(=C/c4ccc(F)c(F)c4)C[C@@H]32)C1	5.66	4.77	1560	8.48	3.05	–	–
C[C@]12CC[C@H](O)CC1=CC[C@@H]1[C@@H]2CC[C@]2(C)C(=C(/C#N)C(N)=O)/C(=C/c3ccccc3Cl)C[C@@H]12	3.63	5.34	5130	16.9	13.2	–	–
CC(=O)O[C@H]1CC[C@@]2(C)C(=CC[C@@H]3[C@@H]2CC[C@]2(C)C(=C(/C#N)C(N)=O)/C(=C/c4ccccc4C#N)C[C@@H]32)C1	–	22.4	–	–	–	–	–
CC(=O)O[C@H]1CC[C@@]2(C)C(=CC[C@@H]3[C@@H]2CC[C@]2(C)C(=C(/C#N)C(N)=O)/C(=C/c4cccs4)C[C@@H]32)C1	20.4	22.8	150	20.4	20.3	45	–
CC(=O)O[C@H]1CC[C@@]2(C)C(=CC[C@@H]3[C@@H]2CC[C@]2(C)C(=C(/C#N)C(N)=O)/C(=C/c4cccc(Cl)c4)C[C@@H]32)C1	7.12	8.01	110	11.3	8.97	–	–
C[C@]12CC[C@H](O)CC1=CC[C@@H]1[C@@H]2CC[C@]2(C)C(=C(/C#N)C(N)=O)/C(=C/c3ccc(F)cc3)C[C@@H]12	3.34	5.92	5670	14.6	8.69	–	–
CC(=O)O[C@H]1CC[C@@]2(C)C(=CC[C@@H]3[C@@H]2CC[C@]2(C)C(=C(/C#N)C(N)=O)/C(=C/c4ccc(C)cc4)C[C@@H]32)C1	18.6	6.35	8100	22.9	12	–	–
C[C@]12CC[C@H](O)CC1=CC[C@@H]1[C@@H]2CC[C@]2(C)C(=C(/C#N)C(N)=O)/C(=C/c3ccccc3F)C[C@@H]12	1.9	6.58	2690	13.3	14.6	–	5
CC(=O)O[C@H]1CC[C@@]2(C)C(=CC[C@@H]3[C@@H]2CC[C@]2(C)C(=C(/C#N)C(N)=O)/C(=C/c4ccc(F)cc4)C[C@@H]32)C1	5.9	3.67	3110	9.17	4.78	–	–
CC(=O)O[C@H]1CC[C@@]2(C)C(=CC[C@@H]3[C@@H]2CC[C@]2(C)C(=C(/C#N)C(N)=O)/C(=C/c4ccccc4)C[C@@H]32)C1	5.03	7.47	3100	12.8	11.7	–	–
CC(=O)O[C@H]1CC[C@@]2(C)C(=CC[C@@H]3[C@@H]2CC[C@]2(C)C(=C(/C#N)C(N)=O)/C(=C/c4ccccc4Cl)C[C@@H]32)C1	18.4	6.27	580	24.3	11.9	–	–
